Source: patent US20170122958A1, “Enzymes Functional Probes” (University of Dundee, priority 2013, published 2017)
“Also recorded” adds a separate entry of the source. Where two headings read alike, the source gives them in different places.

Columns and labels:
Brd2(2)*(Trp370Phe) [1] = biological target: T1, Brd2(2)*(Trp370Phe) (Homo sapiens, UniProt P25440, W370F); test: ITC reverse titration of protein into compound; format: binding
T1 construct: Plasmids of the eight single BET bromodomain constructs Brd2(1), Brd2(2), Brd3(1), Brd3(2); His6 (N); made in house; host or cells: E. coli BL21(DE3)
Procedure: For this reason, these molecules were not selected for further experimentation. […] Results can be seen in FIG. 7.
(§1) ITC experiments were carried out on a ITC200 instrument from MicroCal™ Experiments were conducted at 3 different temperatures 15° C., 25° C. and 30° C., while stirring at 1000 rpm. Buffers of proteins, peptide and compounds were matched to 20 mM HEPES pH 7.5 at 25° C. and 100 mM NaCl. Frozen protein was buffer exchanged as described for the DSF experiments. Each titration comprised 1 initial injection of 0.4 μl lasting 0.8 s, followed by 19 injections of 2 μl lasting 4 s each at 2 min intervals. The initial injection was discarded during data analysis. Standard and reverse titrations were conducted depending on the binding partners.
Reverse titrations were conducted to test the binding of the known ligands and the novel chemical probes to the wild types and the mutants. Experiments were carried out either at 25° C. or 30° C. […]
(§2) All the data was fitted to a single binding site model using the Microcal LLC ITC200 Origin software provided by the manufacturer to yield enthalpies of binding (ΔH) and binding constants (Kas). Further thermodynamic parameters were calculated from these values (changes in entropy ΔS, changes in free energy AG and dissociation constants (Kds)).

Brd2(2) [2] = biological target: T2, Brd2(2) (Homo sapiens, UniProt P25440); test: ITC reverse titration of protein into compound; format: binding; details: ITC 25° C.
T2 construct: Plasmids of the eight single BET bromodomain constructs Brd2(1), Brd2(2), Brd3(1), Brd3(2); His6 (N); made in house; host or cells: E. coli BL21(DE3)
Procedure: as §1
(§3) Reverse titrations were conducted to test the binding of the known ligands and the novel chemical probes to the wild types and the mutants. Experiments were carried out either at 25° C. or 30° C. […] In cases where the compound was solubilized in dimethyl sulfoxide, DMSO concentration was adjusted to 1% both in the syringe and in the cell.
as §2

Brd2(1)*(Trp097Phe) = biological target: T3, Brd2(1)*(Trp097Phe) (Homo sapiens, UniProt P25440, W97F); test: DSF thermal shift; format: binding; details: mutant
T3 construct: Plasmids of the eight single BET bromodomain constructs Brd2(1), Brd2(2), Brd3(1), Brd3(2); His6 (N); made in house; host or cells: E. coli BL21(DE3)

Brd2(1)*(Trp097His) = biological target: T4, Brd2(1)*(Trp097His) (Homo sapiens, UniProt P25440, W97H); test: DSF thermal shift; format: binding; details: mutant
T4 construct: Plasmids of the eight single BET bromodomain constructs Brd2(1), Brd2(2), Brd3(1), Brd3(2); His6 (N); made in house; host or cells: E. coli BL21(DE3)

Brd2(2)*(Trp370His) = biological target: T5, Brd2(2)*(Trp370His) (Homo sapiens, UniProt P25440, W370H); test: DSF thermal shift; format: binding; details: mutant
T5 construct: Plasmids of the eight single BET bromodomain constructs Brd2(1), Brd2(2), Brd3(1), Brd3(2); His6 (N); made in house; host or cells: E. coli BL21(DE3)

Brd2(2)*(Trp370Phe) [3] = biological target: T1, Brd2(2)*(Trp370Phe); test: DSF thermal shift; format: binding; details: mutant
Brd2(2) [4] = biological target: T2, Brd2(2); test: DSF thermal shift; format: binding; details: wild type
Brd2(1) [5] = biological target: T6, Brd2(1) (Homo sapiens, UniProt P25440); test: DSF thermal shift; format: binding; details: wild type
T6 construct: Plasmids of the eight single BET bromodomain constructs Brd2(1), Brd2(2), Brd3(1), Brd3(2); His6 (N); made in house; host or cells: E. coli BL21(DE3)

Brd2(1)*(Val103-Ala) = biological target: T7, Brd2(1)*(Val103-Ala) (Homo sapiens, UniProt P25440, V103A); test: DSF thermal shift; format: binding; details: mutant
T7 construct: Plasmids of the eight single BET bromodomain constructs Brd2(1), Brd2(2), Brd3(1), Brd3(2); His6 (N); made in house; host or cells: E. coli BL21(DE3)

Brd2(2)*(Val376Ala) = biological target: T8, Brd2(2)*(Val376Ala) (Homo sapiens, UniProt P25440, V376A); test: DSF thermal shift; format: binding; details: mutant
T8 construct: Plasmids of the eight single BET bromodomain constructs Brd2(1), Brd2(2), Brd3(1), Brd3(2); His6 (N); made in house; host or cells: E. coli BL21(DE3)

[6] = tested on: Brd2 methionine to alanine mutants; test: DSF thermal shift, pooled statement; format: binding, human; details: span over both mutants
Procedure: (§4) DSF assays were performed on a LightCycler®480 from Roche or a Mx3005P Real Time PCR machine from Stratagene. Prior to DSF assays, frozen proteins were buffer exchanged using Vivaspin®6 concentrators with a 10 kDa cutoff on a Centrifuge 5430 from Eppendorf at a speed of 6000×g to remove glycerol and to buffer the proteins in 20 mM HEPES pH 7.5 at 25° C. and 100 mM NaCl. SYPRO®Orange from Invitrogen Molecular Probes® was used as a reporter dye to monitor the denaturing process of the proteins. Samples were assayed on a 96-well plate with final protein concentrations of 2 μM for the LightCycler®480 and 6 μM for Mx3005P. […] The temperature was raised with a step of 0.6° C. per minute from 37° C. to 95° C. with the LightCycler®480 collecting 39 measurements per ° C., and 1° C. per minute from 25° C. to 95° C. with Mx3005P, collecting fluorescence readings at the end of each interval. […]
(§5) Collected data was analysed by IGOR Pro 6, a scientific software tool from Wave Metrics, Inc. Analysis was done following the recommendations of Niesen et al.. Fluorescence intensity was plotted as a function of temperature, generating a sigmoidal curve described by a two-state transition from folded to unfolded protein. […]

Brd2 wild types = test: DSF thermal shift, pooled statement; format: binding, human; details: span over Brd2(1) and Brd2(2)
Procedure: as §4, §5

Brd2(2)*(Met438-Leu) = biological target: T9, Brd2(2)*(Met438-Leu) (Homo sapiens, UniProt P25440, M438L); test: DSF thermal shift; format: binding; details: mutant
T9 construct: Plasmids of the eight single BET bromodomain constructs Brd2(1), Brd2(2), Brd3(1), Brd3(2); His6 (N); made in house; host or cells: E. coli BL21(DE3)
How it was run: (§6)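 Proteins buffer-exchanged into 20 mM HEPES pH 7.5, 100 mM NaCl; SYPRO Orange reporter. Protein 2 or 6 µM with compound 10 or 30 µM (histone peptide 100 or 300 µM) on two instruments, ramped from 37 or 25 °C to 95 °C, triplicates. Tm from first-derivative maximum of sigmoidal fits.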

Brd2(2)*(Met438-Ala) [7] = biological target: T10, Brd2(2)*(Met438-Ala) (Homo sapiens, UniProt P25440, M438A); test: DSF thermal shift; format: binding; details: mutant
T10 construct: Plasmids of the eight single BET bromodomain constructs Brd2(1), Brd2(2), Brd3(1), Brd3(2); His6 (N); made in house; host or cells: E. coli BL21(DE3)
How it was run: as §6

Brd2(1)*(Met165-Leu) = biological target: T11, Brd2(1)*(Met165-Leu) (Homo sapiens, UniProt P25440, M165L); test: DSF thermal shift; format: binding; details: mutant
T11 construct: Plasmids of the eight single BET bromodomain constructs Brd2(1), Brd2(2), Brd3(1), Brd3(2); His6 (N); made in house; host or cells: E. coli BL21(DE3)
How it was run: as §6

Brd2(2)*(Met438-Ala) [8] = biological target: T10, Brd2(2)*(Met438-Ala); test: ITC reverse titration of protein into compound; format: binding
Procedure: as §1
Reverse titrations were conducted to test the binding of the known ligands and the novel chemical probes to the wild types and the mutants. […]. In cases where the compound was solubilized in dimethyl sulfoxide, DMSO concentration was adjusted to 1% both in the syringe and in the cell.
as §2

Brd2(1)*(Met165Ala) [9] = biological target: T12, Brd2(1)*(Met165Ala) (Homo sapiens, UniProt P25440, M165A); test: ITC reverse titration of protein into compound; format: binding; parameters: Plasmids of the eight single BET bromodomain constructs Brd2(1), Brd2(2), Brd3(1), Brd3(2), Brd4(1), Brd4(2), Brdt(1) and Brdt(2); His6 (N); made in house; host or cells: E. coli BL21(DE3)
Procedure: as §1
Reverse titrations were conducted to test the binding of the known ligands and the novel chemical probes to the wild types and the mutants. Experiments were carried out either at 25° C. or 30° C. For strong binders, a concentration of 150-200 μM of the protein was injected into a solution of 15-20 μM compound. […] In cases where the compound was solubilized in dimethyl sulfoxide, DMSO concentration was adjusted to 1% both in the syringe and in the cell.
as §2

Brd2(1) [10] = biological target: T6, Brd2(1); test: ITC reverse titration of protein into compound; format: binding; details: ITC 25° C.; read-out: Kd wild type Brd2(1)
Procedure: as §1, §3, §2

Brd2(1)*(Met165Ala) [11] = biological target: T12, Brd2(1)*(Met165Ala); test: DSF thermal shift; format: binding; parameters: Plasmids of the eight single BET bromodomain constructs Brd2(1), Brd2(2), Brd3(1), Brd3(2); His6 (N); made in house; host or cells: E. coli BL21(DE3); details: mutant
How it was run: as §6

Solubility observations = details: observation in words

T12 sequence (P25440 74-180 M165A limits assumed): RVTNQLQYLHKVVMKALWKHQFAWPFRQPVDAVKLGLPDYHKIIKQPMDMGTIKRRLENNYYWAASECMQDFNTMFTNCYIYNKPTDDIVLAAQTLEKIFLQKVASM
T2 sequence (P25440 344-453 limits assumed): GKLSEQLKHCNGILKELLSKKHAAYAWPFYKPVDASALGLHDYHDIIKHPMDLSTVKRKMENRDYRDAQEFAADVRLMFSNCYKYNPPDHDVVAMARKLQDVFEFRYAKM
T6 sequence (P25440 74-180 limits assumed): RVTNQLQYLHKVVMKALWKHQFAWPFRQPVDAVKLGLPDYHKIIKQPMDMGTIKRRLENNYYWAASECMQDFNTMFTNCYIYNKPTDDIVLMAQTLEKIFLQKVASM
T10 sequence (P25440 344-453 M438A limits assumed): as the sequence (P25440 344-453 limits assumed) above, with M95A counted along it
T1 sequence (P25440 344-453 W370F limits assumed): as the sequence (P25440 344-453 limits assumed) above, with W27F counted along it
T9 sequence (P25440 344-453 M438L limits assumed): as the sequence (P25440 344-453 limits assumed) above, with M95L counted along it
T3 sequence (P25440 74-180 W97F limits assumed): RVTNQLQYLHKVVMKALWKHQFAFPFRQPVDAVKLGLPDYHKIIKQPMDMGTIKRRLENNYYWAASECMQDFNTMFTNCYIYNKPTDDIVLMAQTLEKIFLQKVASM
T4 sequence (P25440 74-180 W97H limits assumed): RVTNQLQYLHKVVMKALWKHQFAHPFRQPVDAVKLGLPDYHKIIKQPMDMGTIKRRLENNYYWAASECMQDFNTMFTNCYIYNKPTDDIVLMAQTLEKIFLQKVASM
T5 sequence (P25440 344-453 W370H limits assumed): as the sequence (P25440 344-453 limits assumed) above, with W27H counted along it
T11 sequence (P25440 74-180 M165L limits assumed): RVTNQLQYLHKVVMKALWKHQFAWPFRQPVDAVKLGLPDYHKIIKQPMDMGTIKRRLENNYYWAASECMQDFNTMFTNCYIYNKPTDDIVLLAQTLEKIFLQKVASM
T7 sequence (P25440 74-180 V103A limits assumed): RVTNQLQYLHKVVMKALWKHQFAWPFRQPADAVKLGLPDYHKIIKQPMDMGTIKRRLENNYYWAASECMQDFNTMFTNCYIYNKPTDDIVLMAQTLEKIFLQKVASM
T8 sequence (P25440 344-453 V376A limits assumed): as the sequence (P25440 344-453 limits assumed) above, with V33A counted along it

COC(=O)CC1N=C(c2cccc3[nH]ccc23)c2cc(OC)ccc2-n2c(C)nnc21 (centres unmarked) [Compound 18]
Kd (Brd2(2)*(Trp370Phe) [1]): ~300 nM | Kd (Brd2(2) [2]; Kd Brd2(2)): ~90 nM | ΔTm Brd2(1)*(Tryp097-Phe) (Brd2(1)*(Trp097Phe)): 1.9 ± 0.5 K | ΔTm Brd2(1)*(Tryp097-His) (Brd2(1)*(Trp097His)): 0.6 ± 0.3 K | ΔTm Brd2(2)*(Tryp370-His) (Brd2(2)*(Trp370His)): 2.7 ± 0.4 K | ΔTm Brd2(2)*(Tryp370-Phe) (Brd2(2)*(Trp370Phe) [3]): 5.1 ± 0.1 K | ΔTm Brd2(2) (Brd2(2) [4]): 7.7 ± 0.2 K | ΔTm Brd2(1) (Brd2(1) [5]): 6.8 ± 0.6 K

CCNC(=O)CC1N=C(c2ccc(Cl)cc2)c2cc(OC)cc(C)c2-n2c(C)nnc21 (centres unmarked) [Compound 19]
ΔTm Brd2(1)*(Val103-Ala) (Brd2(1)*(Val103-Ala)): 0.4 ± 0.3 K | ΔTm Brd(2)*(Val376-Ala) (Brd2(2)*(Val376Ala)): 1.3 ± 0.1 K | ΔTm Brd2(2) (Brd2(2) [4]): 3.8 ± 0.1 K | ΔTm Brd2(1) (Brd2(1) [5]): 0.5 ± 0.2 K

COc1ccc(OC)c(S(=O)(=O)Nc2ccc3c(c2)CN(C)C(=O)N3)c1 [Compound 51, 2,5-dimethoxy-N-(3-methyl-2-oxo-1,2,3,4-tetrahydroquinazolin-6-yl)benzenesulfonamide]
ΔTm methionine to alanine mutants of Brd2 [6]: 4.5-6.6 °C | ΔTm wild types of Brd2 (Brd2 wild types): 1-2 °C | ΔTm Brd2(2)*(Met165-Leu) (Brd2(2)*(Met438-Leu)): 5.2 ± 0.3 K | ΔTm Brd2(2)*(Met165-Ala) (Brd2(2)*(Met438-Ala) [7]): 6.6 ± 0.3 K | ΔTm Brd2(1)*(Met165-Leu) (Brd2(1)*(Met165-Leu)): 2.9 ± 0.2 K | Selectivity for mutant relative to wild type (Brd2(2)*(Met438-Ala) [8]; Brd2(2) methionine to alanine mutant vs Brd2(2), ITC Kd): six fold selectivity | Fold higher affinity for mutant than wild type (Brd2(2)*(Met438-Ala) [8]; Brd2(2)* methionine to alanine mutant vs wild type Brd2(1), ITC Kd): twelve fold higher affinity; also recorded: three-fold higher affinity | Kd (Brd2(2)*(Met438-Ala) [8]; ITC 25° C., read-out: Kd methionine to alanine mutation of Brd2(2)): ~260 nM | Fold higher affinity for mutant than wild type (Brd2(1)*(Met165Ala) [9]; Brd2(1)* methionine to alanine mutant vs wild type Brd2(2), ITC Kd): three-fold higher affinity; also recorded: twelve fold higher affinity | Selectivity for mutant relative to wild type (Brd2(1)*(Met165Ala) [9]; Brd2(1)*(Met165Ala) vs Brd2(1), ITC Kd): six-fold selectivity | Kd (Brd2(1)*(Met165Ala) [9]; ITC 25° C.): ~500 nM | Kd (Brd2(2) [2]; read-out: Kd Brd2(2)): ~1600 nM | Kd (Brd2(1) [10]): ~3200 nM | ΔTm Brd2(1)*(Met165-Ala) (Brd2(1)*(Met165Ala) [11]): 4.6 ± 0.2 K | Solubility (Solubility observations): good solubility | ΔTm Brd2(2) (Brd2(2) [4]): 2.1 ± 0.3 K | ΔTm Brd2(1) (Brd2(1) [5]): 1.1 ± 0.2 K
